Target: PCAF bromodomain (His/Flag epitope tagged PCAF719-832) (Homo sapiens (Human), UniProt Q92831)
Assay: PCAF AlphaLisa binding assay
Conditions: not given
Experimental: IC50 Measurements for Inhibitors Using PCAF AlphaLisa Binding Assay
PCAF bromodomain binding and inhibition of the compounds disclosed herein was assessed by monitoring the engagement of biotinylated small molecule ligand (known to bind to the PCAF bromodomain) with the target using the AlphaLisa technology (Perkin-Elmer).

PCAF bromodomain (His/Flag epitope tagged PCAF719-832), sequence (Q92831 719-832): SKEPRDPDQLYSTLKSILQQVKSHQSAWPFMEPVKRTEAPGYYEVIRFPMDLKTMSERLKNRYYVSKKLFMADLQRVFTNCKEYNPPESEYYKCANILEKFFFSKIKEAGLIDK

Structure (SMILES)	IC50
Cn1ncc(NC2CN3CCC2CC3)c(Cl)c1=O (racemic) [Example 10, (racemic)-4-chloro-2-methyl-5-(quinuclidin-3-ylamino)pyridazin-3(2H)-one]	975 nM

Same assay, conditions: AlphaLisa; PCAF bromodomain 225 nM, biotinylated small molecule ligand 6 nM; read-out: PCAF IC50

Structure (SMILES)	IC50
Cn1ncc(NC2CCCN(Cc3cccc(OC(F)F)c3)C2)c(Cl)c1=O (stereo not shown) [Example 44, 4-chloro-5-[[1-[[3-(difluoromethoxy)phenyl]methyl]-3-piperidyl]amino]-2-methyl-pyridazin-3-one]	94.9 nM
Cn1ncc(NC2CCCN(c3ccccn3)C2)c(Cl)c1=O (stereo not shown) [Example 9, 4-chloro-2-methyl-5-((1-(pyridin-2-yl)piperidin-3-yl)amino)pyridazin-3(2H)-one]	403 nM
C[C@H]1CC[C@@H](Nc2cnn(C)c(=O)c2Cl)CN1C (stereo in doubt) [Example 29, 4-chloro-5-((1,6-dimethylpiperidin-3-yl)amino)-2-methylpyridazin-3(2H)-one]	48.5 nM
COCCN1CCCC(Nc2cnn(C)c(=O)c2Cl)C1 (stereo not shown) [Example 30, 4-chloro-5-((1-(2-methoxyethyl)piperidin-3-yl)amino)-2-methylpyridazin-3(2H)-one]	315 nM
CN1CCCCC(Nc2cnn(CC3CC3)c(=O)c2Cl)C1 (stereo not shown) [Example 16, 4-chloro-2-(cyclopropylmethyl)-5((1-methylazepan-3-yl)amino)pyridazin-3(2H)-one]	421 nM
CC(C)n1ncc(NC2CCCCN(C)C2)c(Cl)c1=O (stereo not shown) [Example 14, 4-chloro-2-isopropyl-5-((1-methylazepan-3-yl)amino)pyridazin-3(2H)-one]	1090 nM
CN1CCCCC(Nc2cnn(C)c(=O)c2Br)C1 (stereo not shown) [Example 13, 4-bromo-2-methyl-5-((1-methylazepan-3-yl)amino)pyridazin-3(2H)-one]	51 nM
C[C@@H]1CC[C@@H](Nc2cnn(C)c(=O)c2Cl)CN1C (stereo in doubt) [Example 26, 4-chloro-5-((1,6-dimethylpiperidin-3-yl)amino)-2-methylpyridazin-3(2H)-one]	34.8 nM
CN1CC(Nc2cnn(C)c(=O)c2Cl)CC(c2ccccc2)C1 (racemic) [Example 24, 4-chloro-2-methyl-5-((1-methyl-5-phenylpiperidin-3-yl)amino)pyridazin-3(2H)-one]	167 nM
CC1CCC(Nc2cnn(C)c(=O)c2Cl)CN1C (stereo not shown) [Example 25, 4-chloro-5-((1,6-dimethylpiperidin-3-yl)amino)-2-methylpyridazin-3(2H)-one]	60 nM
Cc1cncc(CN2CCCC(Nc3cnn(C)c(=O)c3Cl)C2)c1 (stereo not shown) [Example 53, 4-chloro-2-methyl-5-[[1-[(5-methyl-3-pyridyl)methyl]-3-piperidyl]amino]pyridazin-3-one]	441 nM
Cn1ncc(N[C@@H]2CCCCN(Cc3ccccc3)C2)c(Cl)c1=O [Example 37, (R)-5-((1-benzylazepan-3-yl)amino)-4-chloro-2-methylpyridazin-3(2H)-one]	972 nM
Cn1ccnc1CN1CCCC(Nc2cnn(C)c(=O)c2Cl)C1 (stereo not shown) [Example 52, 4-chloro-2-methyl-5-((1-((1-methyl-1H-imidazol-2-yl)methyl)piperidin-3-yl)amino)pyridazin-3(2H)-one]	1410 nM
Cn1ncc(NC2CCCN(Cc3nc(-c4ccc(Cl)cc4)no3)C2)c(Cl)c1=O (stereo not shown) [Example 55, 4-chloro-5-[[1-[[3-(4-chlorophenyl)-1,2,4-oxadiazol-5-yl]methyl]-3-piperidyl]amino]-2-methyl-pyridazin-3-one]	466 nM
C[C@H](c1ccccc1)N1CCCC(Nc2cnn(C)c(=O)c2Cl)C1 (stereo partly drawn) [Example 35, 4-chloro-2-methyl-5-((1-((R)-1-phenylethyl)piperidin-3-yl)amino)pyridazin-3(2H)-one]	671 nM
C[C@@H]1CC[C@H](Nc2cnn(C)c(=O)c2Cl)CN1C (stereo in doubt) [Example 27, 4-chloro-5-((1,6-dimethylpiperidin-3-yl)amino)-2-methylpyridazin-3(2H)-one]	144 nM
Cn1cc(CN2CCCC(Nc3cnn(C)c(=O)c3Cl)C2)cn1 (stereo not shown) [Example 51, 4-chloro-2-methyl-5-[[1-[(1-methylpyrazol-4-yl)methyl]-3-piperidyl]amino]pyridazin-3-one]	371 nM
C[C@@H]1CC[C@@H](Nc2cnn(C)c(=O)c2Cl)CN1C (stereo in doubt) [Example 28, 4-chloro-5-((1,6-dimethylpiperidin-3-yl)amino)-2-methylpyridazin-3(2H)-one]	175 nM
CC(C)N1CCCC(Nc2cnn(C)c(=O)c2Cl)C1 (stereo not shown) [Example 32, 4-chloro-5-((1-isopropylpiperidin-3-yl)amino)-2-methylpyridazin-3(2H)-one]	147 nM
Cn1ncc(NC2CCCN(Cc3cc(Cl)cc(Cl)c3)C2)c(Cl)c1=O (stereo not shown) [Example 46, 4-chloro-5-((1-(3,5-dichlorobenzyl)piperidin-3-yl)amino)-2-methylpyridazin-3(2H)-one]	278 nM
Cn1ncc(NC2CCCN(Cc3cncnc3)C2)c(Cl)c1=O (stereo not shown) [Example 50, 4-chloro-2-methyl-5-[[1-(pyrimidin-5-ylmethyl)-3-piperidyl]amino]pyridazin-3-one]	625 nM

Structure (SMILES)	IC50
CN1CCCC[C@@H](Nc2cnn(C)c(=O)c2Cl)C1 [Example 58, (R)-4-chloro-2-methyl-5-((1-methylazepan-3-yl)amino)pyridazin-3(2H)-one]	169 nM
CCn1ncc(NC2CCCCN(C)C2)c(Cl)c1=O (stereo not shown) [Example 15, 4-chloro-2-ethyl-5-((1-methylazepan-3-yl)amino)pyridazin-3(2H)-one]	407 nM
Cn1ncc(NC2CCCN(Cc3ccccc3N3CCOCC3)C2)c(Cl)c1=O (stereo not shown) [Example 47, 4-chloro-2-methyl-5-[[1-[(2-morpholinophenyl)methyl]-3-piperidyl]amino]pyridazin-3-one]	921 nM
Cn1ncc(NC2CCCN(Cc3c(F)cccc3F)C2)c(Cl)c1=O (stereo not shown) [Example 42, 4-chloro-5-((1-(2,6-difluorobenzyl)piperidin-3-yl)amino)-2-methylpyridazin-3(2H)-one]	1000 nM
Cn1ncc(NC2CCCN(C3COC3)C2)c(Cl)c1=O (stereo not shown) [Example 31, 4-chloro-2-methyl-5-((1-(oxetan-3-yl)piperidin-3-yl)amino)pyridazin-3(2H)-one]	1220 nM
CN1CCCCC(Nc2cnn(C)c(=O)c2Cl)C1 (racemic) [Example 1, 4-chloro-2-methyl-5-((1-methylazepan-3-yl)amino)pyridazin-3(2H)-one]	62 nM
CN1Cc2ccccc2C[C@@H](Nc2cnn(C)c(=O)c2Cl)C1 [Example 39, (R)-4-chloro-2-methyl-5-((2-methyl-2,3,4,5-tetrahydro-1H-benzo[c]azepin-4-yl)amino)pyridazin-3(2H)-one]	102 nM
Cn1ncc(NC2CCCN(Cc3ncc[nH]3)C2)c(Cl)c1=O (stereo not shown) [Example 48, 4-chloro-5-[[1-(1H-imidazol-2-ylmethyl)-3-piperidyl]amino]-2-methyl-pyridazin-3-one]	379 nM
Cn1ncc(NC2CCCOC2)c(Cl)c1=O (racemic) [Example 11, (racemic)-4-chloro-2-methyl-5-((tetrahydro-2H-pyran-3-yl)amino)pyridazin-3(2H)-one]	1020 nM
Cc1nc(CN2CCCC(Nc3cnn(C)c(=O)c3Cl)C2)[nH]c1C (stereo not shown) [Example 54, 4-chloro-5-[[1-[(4,5-dimethyl-1H-imidazol-2-yl)methyl]-3-piperidyl]amino]-2-methyl-pyridazin-3-one]	1440 nM
Cn1ncc(NC2CCCN(Cc3ccccn3)C2)c(Cl)c1=O (stereo not shown) [Example 33, 4-chloro-2-methyl-5-((1-(pyridin-2-ylmethyl)piperidin-3-yl)amino)pyridazin-3(2H)-one]	1980 nM
C[C@@H](c1ccccc1)N1CCCC(Nc2cnn(C)c(=O)c2Cl)C1 (stereo partly drawn) [Example 36, 4-chloro-2-methyl-5-((1-((S)-1-phenylethyl)piperidin-3-yl)amino)pyridazin-3(2H)-one]	631 nM
C/C=C/Cn1ncc(NC2CCCCN(C)C2)c(Cl)c1=O (stereo not shown) [Example 17, (E)-2-(but-2-en-1-yl)-4-chloro-5-((1-methylazepan-3-yl)amino)pyridazin-3(2H)-one]	312 nM
Cn1ncc(N[C@H]2CCCCN(Cc3ccccc3)C2)c(Cl)c1=O [Example 38, (S)-5-((1-benzylazepan-3-yl)amino)-4-chloro-2-methylpyridazin-3(2H)-one]	3770 nM
CN1[C@@H]2CC[C@H]1C[C@H](Nc1cnn(C)c(=O)c1Cl)C2 [Example 6, 4-chloro-2-methyl-5-(((1R,3s,5S)-8-methyl-8-azabicyclo[3.2.1]octan-3-yl)amino)pyridazin-3(2H)-one]	492 nM
Cn1ncc(NC2CCCN(Cc3ccc(-n4ccnc4)cc3)C2)c(Cl)c1=O (stereo not shown) [Example 45, 4-chloro-5-[[1-[(4-imidazol-1-ylphenyl)methyl]-3-piperidyl]amino]-2-methyl-pyridazin-3-one]	386 nM
Cn1ncc(NC2CCCN(Cc3ccc(F)cc3)C2)c(Cl)c1=O (stereo not shown) [Example 56, 4-chloro-5-[[1-[(4-fluorophenyl)methyl]-3-piperidyl]amino]-2-methyl-pyridazin-3-one]	139 nM
Cc1c(NC2CCCCN(C)C2)cnn(C)c1=O (stereo not shown) [Example 12, 2,4-dimethyl-5-((1-methylazepan-3-yl)amino)pyridazin-3(2H)-one]	165 nM
Cn1ncc(NC2CCCN(Cc3c[nH]cn3)C2)c(Cl)c1=O (stereo not shown) [Example 49, 4-chloro-5-[[1-(1H-imidazol-4-ylmethyl)-3-piperidyl]amino]-2-methyl-pyridazin-3-one]	178 nM
CN(C)c1ccc(CN2CCCC(Nc3cnn(C)c(=O)c3Cl)C2)cc1 (stereo not shown) [Example 43, 4-chloro-5-[[1-[(4-dimethylaminophenyl)methyl]-3-piperidyl]amino]-2-methyl-pyridazin-3-one]	310 nM
CN1CCCCCC(Nc2cnn(C)c(=O)c2Cl)C1 (stereo not shown) [Example 40, 4-chloro-2-methyl-5-((1-methylazocan-3-yl)amino)pyridazin-3(2H)-one]	155 nM

From patent US10239861B2, “Therapeutic compounds and uses thereof” (GENENTECH, INC., priority 2015, dated 2019)
